Measured values reported in article PMC8156206, “Novel N,N′-Disubstituted Selenoureas as Potential Antioxidant and Cytotoxic Agents” (Antioxidants, 2021).
Like-named read-outs stand apart in the source and are kept apart here.

Tests used:
HCT-116 cells (colon) = assay: MTT cell viability assay, HCT-116; format: cell-based; details: 48 h, MTT, mean ± SD, read-out: IC50 HCT-116 (colon)
Protocol: (§1) Cell lines were purchased from the American Type Culture Collection (ATCC). MCF-7, HTB-54, BEAS-2B and 184B5 cell lines were grown in RPMI 1640 medium (Gibco) supplemented with 10% fetal bovine serum (FBS; Gibco), 100 units/mL penicillin, and […] streptomycin (Gibco). HT-29 and HCT-116 cell lines was cultured in McCoy’s 5A (Gibco), 10% FBS, 100 units/mL penicillin, and 100 μg/mL streptomycin. Cells were maintained at 37 °C and 5% CO2. Culture medium was replaced every three days.
(§2) A cell viability assay of each compound was carried out using an MTT assay. Each selenourea was dissolved in dimethyl sulfoxide (DMSO) at a concentration of 0.01 M. Serial dilutions were prepared with non-supplemented culture medium. Cytotoxic activity of each selenourea was determined at two different concentrations (10 and 50 µM) in MCF-7, HTB-54, and HT-29 cells. In addition, selected compounds were tested at seven different concentrations (0.1, 1, 5, 10, 25, 50, 100 µM) on MCF-7, HT-29, HCT-116, HTB-54, 184B5, and BEAS-2B cells. The number of passages before defrosting the cells was 3, and they were kept under culture up to a maximum of 15.
(§3) Briefly, 1 × 10^4 cells/well were grown in 96-well plates for 24 h. Then, these cells were incubated with either DMSO (negative control) at 5 µM or a different concentration of each tested selenourea for 48 h. A volume of 20 µL of MTT was added 150 min before the termination point to measure cellular viability. After this time, culture medium was removed. The resultant formazan crystals were dissolved in 50 µL of DMSO, and absorbance was measured at 570 nm. Results are expressed as IC50, the half maximal inhibitory concentration. This value was calculated using GraphPad Prism 7 software by nonlinear curve fitting. Furthermore, the selectivity index (SI) was calculated as the ratio of the IC50 values determined for the non-malignant and the tumoral cells (IC50 (184B5)/IC50 (MCF-7) or (IC50 (BEAS-2B)/IC50 (HTB-54). Data were obtained from at least three independent experiments performed in triplicates.

[1] = test system: MCF-7 cells (breast adenocarcinoma); details: cited from earlier work
[2] = test system: HTB-54 cells (lung adenocarcinoma); design: method as in PMID 22397496; details: reference drug, literature value; cited from earlier work
[3] = test system: HT-29 cells (colon carcinoma); design: method as in PMID 32801055; details: reference drug, literature value; cited from earlier work
[4] = DPPH radical scavenging assay; details: 0.03 mg/mL, time-point 0 min
[5] = test system: 184B5 cells (breast non-malignant derived cell line); assay: MTT cell viability assay, 184B5; format: cell-based; details: Homo sapiens, 184B5; 48 h, MTT, mean ± SD; read-out: IC50 184B5 (breast, non-malignant)
Protocol: as §1, §2, §3

[6] = test system: HT-29 cells (colon carcinoma); assay: MTT cell viability assay, HT-29; format: cell-based; details: Homo sapiens, 48 h, MTT; for IC50: HT-29, mean ± SD, read-out: IC50 HT-29 (colon); for viability at 10 µM: HT-29, 10 µM; for viability at 10 µM / viability at 50 µM: read-out: cell viability, percentage of live cells; for viability at 50 µM: HT-29, 50 µM
Procedure, shortened: (§4)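 Cells at 1 × 10^4/well grown 24 h, then treated 48 h with selenourea at 10 and 50 µM (selected compounds 0.1–100 µM), DMSO as negative control. MTT added 150 min before end, formazan read at 570 nm; IC50 by nonlinear fit, ≥3 independent experiments in triplicate.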

[7] = test system: HTB-54 cells (lung adenocarcinoma); assay: MTT cell viability assay, HTB-54; format: cell-based, human; details: for IC50 / viability at 10 µM / viability at 50 µM: Homo sapiens, 48 h, MTT; for IC50: HTB-54, mean ± SD, read-out: IC50 HTB-54 (lung); for viability at 10 µM: HTB-54, 10 µM; for viability at 10 µM / viability at 50 µM: read-out: cell viability, percentage of live cells; for viability at 50 µM: HTB-54, 50 µM; for SI (selectivity index) lung: IC50 (BEAS-2B)/IC50 (HTB-54)
Procedure, shortened: as §4

[8] = test system: BEAS-2B cells (lung non-malignant derived cell line); assay: MTT cell viability assay, BEAS-2B; format: cell-based; details: Homo sapiens, 48 h, mean ± SD
Protocol: as §1, §2, §3

[9] = test system: MCF-7 cells (breast adenocarcinoma); assay: MTT cell viability assay, MCF-7; format: cell-based, human; details: for IC50 / viability at 10 µM / viability at 50 µM: Homo sapiens, MCF7, 48 h, MTT; for IC50: mean ± SD, read-out: IC50 MCF-7 (breast); for viability at 10 µM: MCF-7, 10 µM; for viability at 10 µM / viability at 50 µM: read-out: cell viability, percentage of live cells; for viability at 50 µM: MCF-7, 50 µM; for SI (selectivity index) breast: IC50 (184B5)/IC50 (MCF-7)
Procedure, shortened: as §4

[10] = test system: MCF-7, HTB-54, HT-29 and HCT-116 cancer cell lines; assay: MTT assay, panel of four cancer cell lines; format: cell-based; details: MCF-7, HTB-54, HT-29, HCT-116, read-out: IC50 against the four cancer cell lines tested (all the cell lines)
Protocol: as §2, §3
Those derivatives that reduced the growth of the cell lines below 50% at 10 µM in at least one cell line were selected for being evaluated at five concentrations between […] and 100 µM. Ten compounds (1d, 1e, 2a, 2d, 3a, 6a, 6b, 6c, 6d, and 6e) passed this threshold and four of them (1e, 6c, 6d and 6e) in all three cancer cell lines. The data are expressed as IC50 (mean ± SD) in a panel of four cancer cell lines (MCF-7, HTB-54, HT-29, and HCT-116), and are shown in Table 1. Cisplatin was used as a standard drug. […] Additionally, reported IC50 values of a well-known antitumor selenocompound, i.e., sodium selenite (Na2SeO3), were used as reference for comparision with the selected selenoureas.

[11] = ABTS radical scavenging assay; details: 0.003 mg/mL, 60 min
Protocol: From all the methods available for the prediction of the antioxidant properties, DPPH^● and ABTS^●+ assays were chosen according to their simplicity, accessibility, and effectiveness for a fast prediction of radical scavenging activities in vitro. The radical scavenging capacity of the novel selenoureas was determined by DPPH^● and ABTS^●^+ assays. Measurements were recorded on a BioTeck PowerWave XS spectrophotometer (BioTeck Instruments, Winooski (VT), USA) and the data were collected using KCJunior software (BioTeck Instruments, Winooski (VT), USA).
As well as DPPH, ABTS radical scavenging assay is a colorimetric method. ABTS (2,2′-azino-bis(3-ethylbenzothiazoline-6-sulfonic acid) was dissolved in deionized water at 1 mg/mL and oxidized to ABTS^●+ with potassium persulfate (2.45 mM final concentration). This oxidation process is not instantaneous, and the reaction mixture was kept in the dark overnight at room temperature. After ABTS^●+ radical was generated, the ABTS^●+ solution was diluted with 50% ethanol until an absorbance of 0.70 ± 0.02 at 734 nm for measurements was achieved. Stock solution of 1 mg/mL in absolute ethanol was prepared for each selenourea, and different dilutions were prepared to reach the final concentration, when 20 µL of this solution were added to 180 µL of the diluted ABTS^●+. The absorbance at 734 nm was recorded using 50% ethanol as blank. Trolox and Asc were used as positive controls. All determinations were carried out in triplicate. Same time intervals as in the DPPH assay were also measured. The ability to scavenge ABTS^●+ was calculated using the following formula:(2) % ABTS radical scavenging=Acontrol − Asample/Acontrol × 100 where Acontrol refers to the absorbance of the negative control and Asample refers to the absorbance of the tested compounds. The results are expressed as percentage of ABTS radical scavenging ± SD.
In order to confirm the antioxidant activity of the selenoureas, we performed an additional ABTS (2,2′-azino-bis(3-ethylbenzothiazoline-6-sulfonic acid) radical scavenging assay. Following the results obtained in the DPPH assay, this experiment was performed at 0.03 and 0.003 mg/mL. Measurements were recorded after 0′, 6′ and 60′ of incubation with ABTS. For comparison purposes, Trolox and ascorbic acid were used as references. The remarkable results are summarized in Figure 3.

SMILES | IC50 (HCT-116 cells (colon); Homo sapiens, HCT-116) [µM] | DPPH radical scavenging kinetics [4] | IC50 [5] [µM] | IC50 [6] [µM] | viability at 10 µM [6] [%] | viability at 50 µM [6] [%] | melting point [°C] | IC50 [7] [µM] | viability at 10 µM [7] [%] | viability at 50 µM [7] [%] | SI (selectivity index) lung [7] | IC50 [8] [µM] | IC50 [9] [µM] | viability at 10 µM [9] [%] | viability at 50 µM [9] [%] | SI (selectivity index) breast [9] | IC50 [10] [µM] | ABTS radical scavenging activity compared with Trolox [11] | also measured
N.N.[Cl][Pt][Cl] [Cisplatin] | – | – | – | – | – | – | – | – | – | – | – | – | – | – | – | – | – | – | IC50 (HCT-116 cells (colon)): 2.18 ± 1.58 µM; IC50 ([1]; reference drug, literature value, read-out: IC50 MCF-7 (breast)): 15.2 ± 1.04 µM; IC50 [2]: 13.7 ± 0.83 µM; IC50 [3]: 14.2 ± 0.73 µM
N#Cc1ccc(NC(=[Se])NCc2ccco2)cc1 [Compound 1e] | 9.14 ± 1.14 | reaching the maximum activity at time-point 0′ | 8.09 ± 1.21 | 5.89 ± 1.32 | 36.2 | 28.5 | 128 | 9.79 ± 0.07 | 35.7 | 9.3 | 0.61 | 6.01 ± 0.94 | 9.96 ± 1.45 | 48.8 | 23.4 | 0.81 | < 10 | – | –
Cc1ccc(NC(=[Se])NC23CC4CC(CC(C4)C2)C3)cc1 [Compound 6b] | 6.29 ± 0.76 | – | 12.2 ± 2.42 | 5.67 ± 4.67 | 51.4 | 46.8 | 169 | 9.01 ± 2.6 | 44.2 | 26.1 | 0.83 | 7.56 ± 0.19 | 5.52 ± 1.61 | 40 | 9.2 | 2.21 | < 10 | significant lower radical scavenging activity than Trolox | –
Clc1ccc(NC(=[Se])NC23CC4CC(CC(C4)C2)C3)cc1 [Compound 6d, N´-adamantyl-N-(4-chlorophenyl)selenourea] | 6.95 ± 0.65 | – | 16 ± 2.74 | 8.04 ± 2.17 | 45.9 | 23.7 | 177 | 6.56 ± 0.99 | 22.9 | 4.4 | 1.16 | 7.59 ± 0.53 | 7.19 ± 1.12 | 36.6 | 17.2 | 2.22 | < 10 | significant lower radical scavenging activity than Trolox | –
N#Cc1ccc(NC(=[Se])NC23CC4CC(CC(C4)C2)C3)cc1 [Compound 6e, N´-Adamanty-N-(4-cyanophenyl)selenourea] | 5.43 ± 0.86 | reaching the maximum activity at time-point 0′ | 7.69 ± 0.31 | 4.18 ± 0.46 | 18.9 | 3.6 | – | 6.09 ± 0.75 | 34 | 0.3 | 0.39 | 2.36 ± 0.39 | 5.47 ± 3.91 | 44.4 | 5.7 | 1.41 | < 10 | – | –
O=[Se](O)O [sodium selenite] | – | – | – | – | – | – | – | – | – | – | – | – | – | – | – | – | – | – | IC50 ([1]; after 72 h of treatment, read-out: IC50 in MCF-7 cells): 17 µM
